Measurements published in US5460829A, “Pharmaceutical compositions based on ebastine or analogues thereof” (Rhone-Poulenc Rorer S.A., priority 1991, dated 1995).

Tests used:
[1] = Water solubility at pH 2; format: physicochemical
[2] = Bioavailability of solid form; format: in vivo; conditions: formulated in solid form
[3] = Dissolution of the active principle in aqueous/acidic medium; format: physicochemical; conditions: oral administration

solubility ([1]; water, in the form of the lactate, pH 2, read-out: optimum solubility) | bioavailability [2] | water solubility ([1]; basic non-salified form, relative to the lactate) | dissolution time in the aqueous medium of the stomach [3] | SMILES
800 µg/mL |  |  |  | CC(C)(C)c1ccc(C(=O)CCCN2CCC(OC(c3ccccc3)c3ccccc3)CC2)cc1 [compound of formula (I) lactate]
 | very mediocre | even lower | very long | CC(C)(C)c1ccc(C(=O)CCCN2CCC(OC(c3ccccc3)c3ccccc3)CC2)cc1 [compound of formula (I), 4-diphenylmethoxy-1-[3-(4-tert-butylbenzoyl)propyl]piperidine]
